Assays:
Assay type in all cases: in vivo
[1] = system: skin, volar forearm test sites; test: Irritation panel study, TEWL by POST (post occlusion stress test) protocol, SLS irritant model (Example 1); settings: FIG. 1; 10 gsm polypropylene nonwoven with 1% SLS + 2% diester vs 1% SLS alone (Sample A); 24 hours under occlusion patch; 9 panellists
Description: 10 gsm polypropylene nonwoven textile was cut into 11 mm diameter circles. Each circle was individually treated with water based dispersions then dried to achieve either a treat rate of a) 1% sodium lauryl sulphate (SLS, Sample A) based on weight of textile, or b) 1% SLS and 2% di-PPG-2 myreth-10 adipate (a diester skin care additive in accordance with the present invention, Sample B) based on percentage by weight of textile. SLS is a known skin irritant, and so provides a good model for assessing skin irritancy in test subjects/panellists.
An irritation panel study was carried out, the study included 9 individual panellists. […]
(§1) For each panellist three test sites on each volar forearm were identified and marked (i.e. 6 test sites in total per panellist were assessed). An initial trans-epidermal water loss (TEWL) reading was taken using an AquaFlux AF200 Instrument to ensure no initial skin irritation at each of the 6 test sites. […]
(§2) After 24 hours panellists were again acclimatised to the laboratory environment for 20 mins at 20° C. and 45% relative humidity. TEWL was measured using the POST (post occlusion stress test) protocol. Under this test the occlusion patch is removed, along with the textile sample, the test site is then wiped of any surface moisture, and then TEWL readings are taken immediately using the same AquaFlux AF200 Instrument. […]

[2] = system: skin, volar forearm test sites; test: Comparative irritation panel study vs glycerine based emollient, TEWL by POST protocol (Example 3); settings: FIG. 8; 10 gsm polypropylene nonwoven; 0.6% Cirrasol Care + 12% additive; 24 hours under occlusion patch; 16 panellists
Description: 10 gsm polypropylene nonwoven textile was cut into 11 mm diameter circles. Each circle was individually treated with water based dispersions then dried to achieve a treat rate of a) 0.6% low-irritation hygiene finish (CirrasolTM Care ex. Croda, Sample A), or b) 0.6% low irritation hygiene finish and 12% […]-10 adipate (a diester skin care additive in accordance with the present invention, Sample B), or c) 0.6% low-irritation hygiene finish and 12% of a glycerine based emollient (Sample C). Treat rates are expressed as percentage by weight of textile. An irritation panel study was carried out, the study included 16 individual panellists. […] For each panellist three test sites on each volar forearm were identified and marked (i.e. 6 test sites in total per panellist were assessed). An initial trans-epidermal water loss (TEWL) reading was taken using an AquaFlux AF200 Instrument to ensure no initial skin irritation at each of the 6 test sites. […] TEWL was measured using the POST (post occlusion stress test) protocol. Under this test the occlusion patch is removed, along with the textile sample, the test site is then wiped of any surface moisture, and then TEWL readings are taken immediately using the same AquaFlux AF200 Instrument. TEWL is measured until the water loss rate peaks, and for the following 5 minutes. Results are measured in total water loss for 5 minutes after water loss rate peaks. […]

[3] = system: skin, volar forearm test sites; test: Comparative irritation panel study vs ester based emollient, TEWL by POST protocol (Example 4); settings: FIG. 9; 10 gsm polypropylene nonwoven; 0.6% Cirrasol Care + 12% additive; 24 hours under occlusion patch; 16 panellists
Description: 10 gsm polypropylene nonwoven textile was cut into 11 mm diameter circles. Each circle was individually treated with water based dispersions then dried to achieve a treat rate of a) 0.6% low-irritation hygiene finish (Cirrasol™ Care ex. Croda, Sample A) based on weight of textile, or b) 0.6% low-irritation hygiene finish and 12% di-PPG-2 myreth-10 adipate (a diester skin care additive in accordance with the present invention, Sample B), or c) 0.6% low-irritation hygiene finish and 12% of a saturated tri-ester based emollient (Crodamol™ GTCC ex. Croda, Sample C). Treat rates are expressed as percentage by weight of textile. […]
as §1, §2

For “di-PPG-2 myreth-10 adipate [diester skin care additive]”, the “decrease in skin water loss (combined average TEWL of all panellists)” value [1] was 31%, the “skin irritation from nonwoven in contact with skin (combined average TEWL) compared to low-irritancy hygiene finish alone” value [2] was “reduced skin irritation” and the “skin irritation from nonwoven in contact with skin (combined average TEWL) compared to low-irritancy hygiene finish alone” value [3] was “reduced skin irritation”.
